From patent US11807835B2, “Detergent compositions containing a stabilized enzyme by phosphonates” (ECOLAB USA INC., priority 2016, dated 2023)

Tests used:
Type in all cases: biochemical
[1] = test system: lipase; assay: Lipase activity retention in detergent use solution (4000 ppm, 5 GPG water; p-nitrophenyl valerate, TRIS buffer pH 8.0); settings: base formula
Method: The enzyme […] collected up to 4 hours, after a use solution was generated from the detergent composition. During the tests, the samples at different time points were collected and immediately frozen in an acetone/dry ice bath and stored in −80° C. before the activity of the enzyme was evaluated. For the use of such an assay, t=0 min was the reference point for 100% enzyme activity.
(§1) Assays of enzyme activity in formulations (% retention) were conducted to simulate a presoak condition in a beaker using the chemistry, temperature, and pH conditions relevant to manual warewash or presoak applications. Enzyme activity is an indicator of the stability of the enzyme in the detergent, specifically in an aqueous use solution within a sump (which is under conditions of high pH, temperature and dilution).
(§2) Enzyme activity under presoak or manual warewash conditions was traced quantitatively using a standard protease assay. Samples were prepared under bench top conditions, whereby the use solution from a detergent composition or detergent was obtained and maintained at a presoak or manual warewash temperature in a stirring water bath. After the time course for assessing enzyme stability is initiated, aliquots were taken at various time points and flash-frozen. A time=0 sample was prepared for each series by dissolving the detergent formulation at room temperature, mixing thoroughly, and flash freezing. Samples were thawed and diluted as necessary in an assay buffer usually for use in the protease assay. A glycine buffer at pH 9.0 is used here. The assay monitored the direct reaction of the protease on a small, commercially available peptidyl substrate, with liberation of the product providing correlation to the active enzyme content. The product was detected using a plate reader with an appreciable dynamic range (upper absorbance limit of the instrument >3.5). Enzyme activity levels were assessed relative to a calibration curve with average values for replicate tests used to map protease stability under presoak or manual warewash use conditions. Enzyme retention at each time point was calculated as the % enzyme activity relative to the time=0 sample.
The analysis by lipase and amylase assay was conducted similarly, except with a different substrate and buffers. For lipase activity, the substrate is p-nitrophenyl valerate, and for amylase, the substrate is an ethylidene substrate (EPS). The buffer used in lipase assay is TRIS (Tris(hydroxymethyl)aminomethane) buffer at pH 8.0, and in amylase assay HEPES (4-(2-hydroxyethyl)-1-piperazineethanesulfonic acid) buffer at pH 8.0.

[2] = test system: enzyme (protease, amylase, lipase); assay: Overall effects of phosphonates on enzyme activity (Table 3)
Method: (§3) The enzyme activities in the detergents with different phosphonate levels were tested at 4000 ppm in 5 grains per gallon (GPG) water at 120° F. with various time points collected up to 4 hours, after a use solution was generated from the detergent composition. During the tests, the samples at different time points were collected and immediately frozen in an acetone/dry ice bath and stored in −80° C. before the activity of the enzyme was evaluated. For the use of such an assay, t=0 min was the reference point for 100% enzyme activity.
as §1
The relative enzyme activities in a use solution of the tested detergent compositions containing a different phosphonate at different concentrations over a period time are listed in Table 4A-Table 4E, Table 5A-Table 5E, and Table 6A-Table 6F.

[3] = test system: protease; assay: Protease activity retention in detergent use solution (4000 ppm, 5 GPG water; peptidyl substrate, glycine buffer pH 9.0); settings: base formula, use solution at 120° F.
Method: as §3, §1
The analysis by protease assay was conducted as follows. For the assays, a detergent composition was used to generate an aqueous use solution evaluated herein.
as §2

## Monoethanolamine phosphonate [MEAP]
[1]; phosphonate 0.3 wt-%, use solution at 120° F., time 0 min
  Relative Lipase Enzyme Activity: 100.00%
[1]; phosphonate 0.3 wt-%, use solution at 120° F., time 5 min
  Relative Lipase Enzyme Activity: 84.99%
[1]; phosphonate 0.3 wt-%, use solution at 120° F., time 10 min
  Relative Lipase Enzyme Activity: 78.55%
[1]; phosphonate 0.3 wt-%, use solution at 120° F., time 20 min
  Relative Lipase Enzyme Activity: 58.36%
[1]; phosphonate 0.3 wt-%, use solution at 120° F., time 40 min
  Relative Lipase Enzyme Activity: 39.07%
[1]; phosphonate 0.3 wt-%, use solution at 120° F., time 60 min
  Relative Lipase Enzyme Activity: 31.84%
[1]; phosphonate 0.3 wt-%, use solution at 120° F., time 90 min
  Relative Lipase Enzyme Activity: 26.97%
[1]; phosphonate 0.3 wt-%, use solution at 120° F., time 120 min
  Relative Lipase Enzyme Activity: 22.23%
[1]; phosphonate 0.3 wt-%, use solution at 120° F., time 150 min
  Relative Lipase Enzyme Activity: 20.19%
[1]; phosphonate 0.3 wt-%, use solution at 120° F., time 180 min
  Relative Lipase Enzyme Activity: 19.50%
[1]; phosphonate 0.3 wt-%, use solution at 120° F., time 210 min
  Relative Lipase Enzyme Activity: 16.46%
[1]; phosphonate 0.3 wt-%, use solution at 120° F., time 240 min
  Relative Lipase Enzyme Activity: 15.76%
[1]; phosphonate 0.6 wt-%, use solution at 120º F., time 0 min
  Relative Lipase Enzyme Activity: 100.00%
[1]; phosphonate 0.6 wt-%, use solution at 120º F., time 5 min
  Relative Lipase Enzyme Activity: 95.37%
[1]; phosphonate 0.6 wt-%, use solution at 120º F., time 10 min
  Relative Lipase Enzyme Activity: 90.69%
[1]; phosphonate 0.6 wt-%, use solution at 120º F., time 20 min
  Relative Lipase Enzyme Activity: 83.63%
[1]; phosphonate 0.6 wt-%, use solution at 120º F., time 40 min
  Relative Lipase Enzyme Activity: 72.89%
[1]; phosphonate 0.6 wt-%, use solution at 120º F., time 60 min
  Relative Lipase Enzyme Activity: 69.90%
[1]; phosphonate 0.6 wt-%, use solution at 120º F., time 90 min
  Relative Lipase Enzyme Activity: 65.92%
[1]; phosphonate 0.6 wt-%, use solution at 120º F., time 120 min
  Relative Lipase Enzyme Activity: 59.18%
[1]; phosphonate 0.6 wt-%, use solution at 120º F., time 150 min
  Relative Lipase Enzyme Activity: 53.85%
[1]; phosphonate 0.6 wt-%, use solution at 120º F., time 180 min
  Relative Lipase Enzyme Activity: 51.72%
[1]; phosphonate 0.6 wt-%, use solution at 120º F., time 210 min
  Relative Lipase Enzyme Activity: 47.03%
[1]; phosphonate 0.6 wt-%, use solution at 120º F., time 240 min
  Relative Lipase Enzyme Activity: 42.96%
[1]; phosphonate at 0.1% elemental phosphorus, at 120º F. or at room temperature (as titled), time 0 min
  Relative Lipase Enzyme Activity: 100.00%
[1]; phosphonate at 0.1% elemental phosphorus, at 120º F. or at room temperature (as titled), time 5 min
  Relative Lipase Enzyme Activity: 81.36%
[1]; phosphonate at 0.1% elemental phosphorus, at 120º F. or at room temperature (as titled), time 10 min
  Relative Lipase Enzyme Activity: 84.98%
[1]; phosphonate at 0.1% elemental phosphorus, at 120º F. or at room temperature (as titled), time 20 min
  Relative Lipase Enzyme Activity: 71.62%
[1]; phosphonate at 0.1% elemental phosphorus, at 120º F. or at room temperature (as titled), time 40 min
  Relative Lipase Enzyme Activity: 57.03%
[1]; phosphonate at 0.1% elemental phosphorus, at 120º F. or at room temperature (as titled), time 60 min
  Relative Lipase Enzyme Activity: 47.80%
[1]; phosphonate at 0.1% elemental phosphorus, at 120º F. or at room temperature (as titled), time 90 min
  Relative Lipase Enzyme Activity: 41.02%
[1]; phosphonate at 0.1% elemental phosphorus, at 120º F. or at room temperature (as titled), time 120 min
  Relative Lipase Enzyme Activity: 31.46%
[1]; phosphonate at 0.1% elemental phosphorus, at 120º F. or at room temperature (as titled), time 150 min
  Relative Lipase Enzyme Activity: 28.32%
[1]; phosphonate at 0.1% elemental phosphorus, at 120º F. or at room temperature (as titled), time 180 min
  Relative Lipase Enzyme Activity: 20.93%
[1]; phosphonate at 0.1% elemental phosphorus, at 120º F. or at room temperature (as titled), time 210 min
  Relative Lipase Enzyme Activity: 23.04%
[1]; phosphonate at 0.1% elemental phosphorus, at 120º F. or at room temperature (as titled), time 240 min
  Relative Lipase Enzyme Activity: 20.87%
[2]
  Stability (effects on enzyme activity): Yes
[3]; phosphonate 0.3 wt-%, lower half of Table 4A, time 5
  Relative Protease Enzyme Activity: 98.29%
[3]; phosphonate 0.3 wt-%, lower half of Table 4A, time 20
  Relative Protease Enzyme Activity: 90.19%
[3]; phosphonate 0.3 wt-%, lower half of Table 4A, time 90
  Relative Protease Enzyme Activity: 72.58%
[3]; phosphonate 0.3 wt-%, lower half of Table 4A, time 120
  Relative Protease Enzyme Activity: 68.59%
[3]; phosphonate 0.3 wt-%, lower half of Table 4A, time 150, unit not given
  Relative Protease Enzyme Activity: 63.56%
[3]; phosphonate 0.3 wt-%, lower half of Table 4A, time 210
  Relative Protease Enzyme Activity: 60.60%
[3]; phosphonate 0.3 wt-%, lower half of Table 4A, time '0'
  Relative Protease Enzyme Activity: 103.02%
[3]; phosphonate 0.3 wt-%, lower half of Table 4A, time '40'
  Relative Protease Enzyme Activity: 82.48%
[3]; phosphonate 0.3 wt-%, lower half of Table 4A, time 'Blank'
  Relative Protease Enzyme Activity: 100.00%
[3]; phosphonate 0.3 wt-%, lower half of Table 4A, time row printed '10'
  Relative Protease Enzyme Activity: 96.59%
[3]; phosphonate 0.3 wt-%, lower half of Table 4A, time row printed '60'
  Relative Protease Enzyme Activity: 79.14%
[3]; phosphonate 0.3 wt-%, lower half of Table 4A, time row printed '180'
  Relative Protease Enzyme Activity: 58.70%
[3]; phosphonate 0.6 wt-%, time 0 min
  Relative Protease Enzyme Activity: 100.00%
[3]; phosphonate 0.6 wt-%, time 5 min
  Relative Protease Enzyme Activity: 106.85%
[3]; phosphonate 0.6 wt-%, time 10 min
  Relative Protease Enzyme Activity: 101.06%
[3]; phosphonate 0.6 wt-%, time 20 min
  Relative Protease Enzyme Activity: 104.08%
[3]; phosphonate 0.6 wt-%, time 40 min
  Relative Protease Enzyme Activity: 95.75%
[3]; phosphonate 0.6 wt-%, time 60 min
  Relative Protease Enzyme Activity: 95.13%
[3]; phosphonate 0.6 wt-%, time 90 min
  Relative Protease Enzyme Activity: 86.12%
[3]; phosphonate 0.6 wt-%, time 120 min
  Relative Protease Enzyme Activity: 85.48%
[3]; phosphonate 0.6 wt-%, time 150 min
  Relative Protease Enzyme Activity: 80.22%
[3]; phosphonate 0.6 wt-%, time 180 min
  Relative Protease Enzyme Activity: 82.71%
[3]; phosphonate 0.6 wt-%, time 210 min
  Relative Protease Enzyme Activity: 70.64%
[3]; phosphonate 0.6 wt-%, time 240 min
  Relative Protease Enzyme Activity: 72.77%
[3]; phosphonate at 0.1% elemental phosphorus, time 0 min
  Relative Protease Enzyme Activity: 100.00%
[3]; phosphonate at 0.1% elemental phosphorus, time 5 min
  Relative Protease Enzyme Activity: 119.22%
[3]; phosphonate at 0.1% elemental phosphorus, time 10 min
  Relative Protease Enzyme Activity: 118.42%
[3]; phosphonate at 0.1% elemental phosphorus, time 20 min
  Relative Protease Enzyme Activity: 113.68%
[3]; phosphonate at 0.1% elemental phosphorus, time 40 min
  Relative Protease Enzyme Activity: 108.32%
[3]; phosphonate at 0.1% elemental phosphorus, time 60 min
  Relative Protease Enzyme Activity: 105.97%
[3]; phosphonate at 0.1% elemental phosphorus, time 90 min
  Relative Protease Enzyme Activity: 95.99%
[3]; phosphonate at 0.1% elemental phosphorus, time 120 min
  Relative Protease Enzyme Activity: 91.30%
[3]; phosphonate at 0.1% elemental phosphorus, time 150 min
  Relative Protease Enzyme Activity: 82.74%
[3]; phosphonate at 0.1% elemental phosphorus, time 180 min
  Relative Protease Enzyme Activity: 81.94%
[3]; phosphonate at 0.1% elemental phosphorus, time 210 min
  Relative Protease Enzyme Activity: 79.85%
[3]; phosphonate at 0.1% elemental phosphorus, time 240 min
  Relative Protease Enzyme Activity: 75.73%
